This assay deals with LL/2 lung cancer tumor endothelial cells. The assay is described as follows: Lung LL2 ex vivo model of tumor angiogenesis. As to conditions: for 48 hrs (morphology observations): LL/2 tumor endothelial cells; for Cell death: drug treatment for two days, ratio of red area to total endothelial cell area. Format: cell-based, mouse. How it is done:
An ex vivo tumor angiogenesis model was developed to test the efficacy of anti-cancer candidate agents. The following protocol describes the Ex Vivo Tumor Angiogenesis Model.
• 1. The day before the experiment, all necessary tools were sprayed with 70% ethanol and sterilized under UV light overnight, including blade, dissecting and micro-dissecting scissors and […]. 24-well dishes were placed at 4° C. to pre-chill plates and Matrigel was thawed, 24 hours before tumor dissection. • 2. 70% ethanol was sprayed on working bench. Two sterile petri dishes were prepared with 10 ml sterile PBS. The following steps 3 and 4 are necessary for mouse tumor models. For fresh human tumor, steps 3 and 4 are skipped. • 3. The tumor-bearing mice were euthanized. 70% ethanol was sprayed on the mouse and the tumor was removed using sterilized dissecting tools (avoid the fur). The tumor was rinsed in petri dish with sterile PBS to remove ethanol and fur. The tumor was transferred to a new petri dish with PBS for dissection. The dish is placed on ice. • 4. Pre-chilled sterile pipet tips were used to seed regular Matrigel in 24 well plates on ice. Matrigel (30 μl) was dropped in the middle of each well without touching the edge of the well (avoid introducing bubbles if possible). • 5. The tumor was cut in halves using the sterile blade. Healthy tumor tissue that is not necrotic and is within the tumor capsule was identified and isolated. The healthy tumor tissue was cut into small pieces. For instance, a suitable size for the tumor tissue is 0.5 mm (H)×0.5 mm (L)×0.3 mm (D) with a total volume of 0.075 mm^3. • 6. Each tumor piece was gently transferred and embedded in the Matrigel drop in the 24-well plate. The embedded piece was placed in the bottom and middle of each Matrigel drop. The plate was kept on ice all the time. • 7. After seeding the tumor pieces, plates were incubated in a 37° C. cell culture incubator without medium for 10 minutes in order for the Matrigel to solidify. • 8. Endothelial Growth Medium (0.5 ml) was added to each well and incubated at 37° C. with 5% CO2. Treatment was not added until the new endothelial cells was grown out of the tumor or were larger than 3 mm in diameter. This usually takes 4 days for the LL2 Lewis lung cancer model and 7 days for the CT26 colon cancer model. For human tumor models, the growth time is typically 2-3 weeks, depending on the tumor type. Media was changed every 4 days during prolonged culture. Typically, when the tumor tissue grows to 2 mm in diameter, it was good for drug testing. A size of about 3 mm in diameter can make visualization easier. • 9. When the assay was ready to be analyzed for cell death (e.g., 48 hours after drug addition), the dye mixture was prepared by mixing 6 μl of green dye to stain live cells (5 mg/ml Fluorescein diacetate or FDA in DMSO) with 30 μl of red dye (2.5 mg/ml Propidium iodide or PI in PBS) to stain dead cells in an Eppendorf tube. The FDA dye needs to be stored frozen in a −20° C. freezer because it has a labile ester bond. • 10. 1 μl of the dye mixture was added to each well of the 24-well dish. It is usually preferred to do one 24-well dish at a time given the amount of time needed to take pictures (the green dye is not as stable in the cells in the long term). • 11. The dish was gently rocked a few times to mix the dye with the media in the wells and incubate the dish at 37° C. for 10 min (too long incubation can make the green signal too intense). • 12. Each well was washed with 0.5 ml of sterile PBS and then 0.5 ml of phenol red free SFM was added to each well. Alternatively 0.5 ml of regular Endothelial Cell Growth Media can be added to each well if this well needs to be continuously maintained after the experiment. • 13. An inverted microscope using the 2× objective lens was used to observe morphological changes in the experimental wells. • 14. […]

[1] abbreviates: Mus musculus, Endothelial cell, 48 h, read-out: Cell death.

For `COc1ccc(S(=O)(=O)c2cnc3ccc(C(=O)N(C)C)cc3c2N2CCC(N3CCCC3=O)CC2)cc1` [Compound 332], where the note is “40 μm”, the “48 hrs (morphology observations)” value is listed as 0 and the Cell death was determined as 0%.

Regarding `CCCCCCCCCCOc1ccc(S(=O)(=O)c2cnc3ccc([S+](C)[O-])cc3c2N2CCC(N3CCC(O)(c4ccccc4)CC3)CC2)cc1` (stereo not shown) [Compound 270], the “48 hrs (morphology observations)” value (20 μm) is reported as “* (50% or less of cells vesicularize in cell shape)”.

For the compound `CCCCOc1ccc(S(=O)(=O)c2cnc3ccc(SC)cc3c2N2CCCN(c3nc4ccc(Cl)cc4s3)CC2)cc1` [Compound 356], the “48 hrs (morphology observations)” value (40 μm) turned out to be 0. For the same compound, the cytotoxicity at 40 µM under setting [1] came out at 0%.

For `CCCCCCCOc1ccc(S(=O)(=O)c2cnc3ccc(SC)cc3c2N2CCN(C3CCN(C)CC3)CC2)cc1` [Compound 273], the “48 hrs (morphology observations)” value (20 μm) was “*** (more than 50% but less than 100% of endothelial cells vesicularize in cell shape)”. The cytotoxicity at 20 µM under setting [1] turned out to be 60%.

On to `CCCCCCCCCCOc1ccc(S(=O)(=O)c2cnc3ccc([S+](C)[O-])cc3c2N2CCC(N3CCC(N4CCCCC4)CC3)CC2)cc1F` (stereo not shown) [Compound 290], for which, for the setting “10 μm”, the “48 hrs (morphology observations)” value is recorded as “*** (more than 50% but less than 100% of endothelial cells vesicularize in cell shape)”. Moreover, the cytotoxicity at 10 µM under setting [1] amounted to 50%.

`CCc1ccc(S(=O)(=O)c2cnc3ccc(OC(F)(F)F)cc3c2NCCCCO)cc1` [Compound 111]: under “20 μm”, the “48 hrs (morphology observations)” value stood at 0 and the Cell death is 30%.

Consider `CCN(CC)CCN(CC)c1c(S(=O)(=O)c2ccc(OC)cc2)cnc2cc(OC)c(OC)cc12` [Compound 296], for which, where the note is “40 μm”, the “48 hrs (morphology observations)” value was 0 and the Cell death is listed as 20%.

Take `CCCCCCCCCCCCOc1ccc(S(=O)(=O)c2cnc3ccc([S+](C)[O-])cc3c2N2CCC(N3CCC(N4CCCC(O)C4)CC3)CC2)cc1F` (stereo not shown) [Compound 367]: the “48 hrs (morphology observations)” value (20 μm) is on record as 0. Moreover, under setting [1], the cytotoxicity at 20 µM came out at 5%.

`CCCCCCCCCCCCOc1ccc(S(=O)(=O)c2cnc3ccc([S+](C)[O-])cc3c2N2CCC(N3CCC(N4CCC(O)CC4)CC3)CC2)cc1F` (stereo not shown) [Compound 372]: the Cell death (20 μm) is 20%.

For `CCc1ccc(S(=O)(=O)c2cnc3ccc(OC(F)(F)F)cc3c2Nc2ccncc2)cc1` [Compound 107], under “20 μm”, the “48 hrs (morphology observations)” value is on record as 0 and the Cell death amounted to 0%.

As to `CCCCOc1ccc(S(=O)(=O)c2cnc3ccc([S+](C)[O-])cc3c2N2CCC(N3CCC(O)CC3)CC2)cc1` (stereo not shown) [Compound 168], where the note is “20 μm”, the “48 hrs (morphology observations)” value came out at 0 and the Cell death was 10%.

Consider `CCCCOc1ccc(S(=O)(=O)c2cnc3ccc(SC)cc3c2N2CCCN(C3CCS(=O)(=O)CC3)CC2)cc1` [Compound 359], for which the “48 hrs (morphology observations)” value (40 μm) worked out at 0. The cytotoxicity at 40 µM under setting [1] was found to be 20%.

With `CCN(CC)CCC(C)Nc1c(S(=O)(=O)c2ccc(OC)cc2)cnc2cc(OC)c(OC)cc12` (stereo not shown) [Compound 300], under “40 μm”, the “48 hrs (morphology observations)” value is 0 and the Cell death turned out to be 20%.

On to `CCc1ccc(S(=O)(=O)c2cnc3ccc(OC)cc3c2NN2CCN(C)CC2)cc1` [Compound 83], for which, for the setting “40 μm”, the “48 hrs (morphology observations)” value was found to be 0. For the same compound, under setting [1], the cytotoxicity at 40 µM turned out to be 20%.

For `CCCCCCCOc1ccc(S(=O)(=O)c2cnc3ccc(SC)cc3c2N2CCC(N3CCCC(O)C3)CC2)cc1` (stereo not shown) [Compound 247], under “20 μm”, the “48 hrs (morphology observations)” value is “*** (more than 50% but less than 100% of endothelial cells vesicularize in cell shape)” and the Cell death amounted to 60%.

In the case of `CCCCCCCCCCCCOc1ccc(S(=O)(=O)c2cnc3ccc([S+](C)[O-])cc3c2N2CCC(N3CCC(N4CCCCC4)CC3)CC2)cc1F` (stereo not shown) [Compound 363], where the note is “20 μm”, the “48 hrs (morphology observations)” value is recorded as “*** (more than 50% but less than 100% of endothelial cells vesicularize in cell shape)” and the Cell death is 30%.

For `CCCCCCCCCCCCCCOc1ccc(S(=O)(=O)c2cnc3ccc([S+](C)[O-])cc3c2N2CCC(N3CCC(N4CCC(O)CC4)CC3)CC2)cc1F` (stereo not shown) [Compound 373], for the setting “20 μm”, the “48 hrs (morphology observations)” value is listed as “* (50% or less of cells vesicularize in cell shape)” and the Cell death amounted to 20%.

Turning to `CCOC(=O)c1ccc2ncc(S(=O)(=O)c3ccc(OC)cc3)c(N3CCC(N4CCCCCC4)CC3)c2c1` [Compound 173], the Cell death (40 μm) stood at 50%.

Regarding `CCCCCCCCCCCCCCOc1ccc(S(=O)(=O)c2cnc3ccc([S+](C)[O-])cc3c2N2CCC(N3CCN(CCO)CC3)CC2)cc1F` (stereo not shown) [Compound 365], under “20 μm”, the “48 hrs (morphology observations)” value is “*** (more than 50% but less than 100% of endothelial cells vesicularize in cell shape)” and the Cell death is given as 20%.

`CCOC(=O)c1ccc2ncc(S(=O)(=O)c3ccc(OC)cc3)c(-n3ccnn3)c2c1` [Compound 184]: for the setting “10 μm”, the “48 hrs (morphology observations)” value turned out to be 0 and the Cell death was determined as 5%.

In the case of `CCCCOc1ccc(S(=O)(=O)c2cnc3ccc([S+](C)[O-])cc3c2N2CCC(N3CCN(CCO)CC3)CC2)cc1` (stereo not shown) [Compound 236], for the setting “40 μm”, the “48 hrs (morphology observations)” value is given as 0 and the Cell death was 5%.

As to `COc1ccc(S(=O)(=O)c2cnc3ccc([S+](C)[O-])cc3c2NN2CCN(C)CC2)cc1` (stereo not shown) [Compound 227], for the setting “40 μm”, the “48 hrs (morphology observations)” value is listed as 0 and the Cell death is 10%.

`CCc1ccc(S(=O)(=O)c2cnc3ccc(OC(F)(F)F)cc3c2NCCCCCO)cc1` [Compound 104]: where the note is “20 μm”, the “48 hrs (morphology observations)” value is on record as 0 and the Cell death is reported as 20%.

With `CCCCOc1ccc(S(=O)(=O)c2cnc3ccc(C(=O)NCCO)cc3c2N2CCCN(C)CC2)cc1` [Compound 200], for the setting “40 μm”, the “48 hrs (morphology observations)” value is reported as 0. Also, under setting [1], the cytotoxicity at 40 µM was 30%.

Regarding `CCCCCCCCCCCCCCCCOc1ccc(S(=O)(=O)c2cnc3ccc([S+](C)[O-])cc3c2N2CCC(N3CCC(N4CCCC(O)C4)CC3)CC2)cc1` (stereo not shown) [Compound 378], where the note is “20 μm”, the “48 hrs (morphology observations)” value is recorded as “*** (more than 50% but less than 100% of endothelial cells vesicularize in cell shape)” and the Cell death was 30%.

For the compound `CCCCCCCCCCCCCCOc1ccc(S(=O)(=O)c2cnc3ccc([S+](C)[O-])cc3c2N2CCC(N3CCC(N4CCN(CCO)CC4)CC3)CC2)cc1F` (stereo not shown) [Compound 368], the Cell death (20 μm) amounted to 20%.

Turning to `CCCCCCCCCCCCCCCCOc1ccc(S(=O)(=O)c2cnc3ccc([S+](C)[O-])cc3c2N2CCC(N3CCN(CCO)CC3)CC2)cc1` (stereo not shown) [Compound 376], for the setting “20 μm”, the “48 hrs (morphology observations)” value is listed as 0 and the Cell death is recorded as 10%.

For the compound `CCCCCCCOc1ccc(S(=O)(=O)c2cnc3ccc([S+](C)[O-])cc3c2N2CCN(CC3CCN(Cc4ccccc4)CC3)CC2)cc1` (stereo not shown) [Compound 279], under “20 μm”, the “48 hrs (morphology observations)” value is “**** (100% of endothelial cells vesicularize in cell shape and look flattened in morphology (indicating disintegration of the cell body))”; the Cell death came out at 100%.

With `COc1ccc(S(=O)(=O)c2cnc3ccc(C(=O)N(C)C)cc3c2N2CCCN(CC(=O)N(C)C)CC2)cc1` [Compound 333], for the setting “40 μm”, the “48 hrs (morphology observations)” value is recorded as 0 and the Cell death was 0%.

With `CCOC(=O)c1ccc2ncc(S(=O)(=O)c3ccc(OC)cc3)c(N3CCCN(CCN4CCCCC4)CC3)c2c1` [Compound 179], for the setting “10 μm”, the “48 hrs (morphology observations)” value is reported as “*** (more than 50% but less than 100% of endothelial cells vesicularize in cell shape)” and the Cell death amounted to 60%.

As to `COc1ccc(S(=O)(=O)c2cnc3cc(OC)c(OC)cc3c2N2CCCN(C3COC3)CC2)cc1` [Compound 326], where the note is “40 μm”, the “48 hrs (morphology observations)” value is 0 and the Cell death is listed as 30%.

The values above are taken from US20250230226A1, “PLXDC1/PLXDC2 ACTIVATORS AND THEIR USE IN THE TREATMENT OF BLOOD VESSEL DISORDERS” (THE REGENTS OF THE UNIVERSITY OF CALIFORNIA, priority 2019, published 2025).
